12 molecules from ChEMBL document CHEMBL1201862, “PubChem BioAssay data set” (2004) can be followed below.

Each structure is given as a SMILES string.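 Test compounds were applied to cells in 96-well plates for 48 hours at 5 doses. Here, GI50 denotes the concentration required for 50% inhibition of growth.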 The source made the active and inactive calls. No stated cut-off is given here; in the data, active = GI50 up to about 1.1 µM and inactive = higher. Where only a bound is given, the exact number is not on record here.

Some test systems named below: ACHN; CCRF-CEM; HCT-116; IGROV-1; K562; KM12; Malme-3M; NCI-H23; NCI-H460; OVCAR-3; OVCAR-8; SF-268; SF-539; SK-MEL-2; SN12C; HOP-92; RPMI-8226; CAKI-1; SR.
What all share (test): NCI anticancer screen, dose series, 48 h

For `CC(Oc1ccc(OCC2CCCCC2)cc1)C(=O)OCC(=O)c1ccc(-c2ccccc2)cc1` (stereo not given), the GI50 in the assay with ACHN, with CCRF-CEM, in the assay with HCT-116, in the assay on IGROV-1, in the assay on K562 and with KM12 was > 100 µM (inactive) in each case. Moreover, the GI50 in the assay with Malme-3M, in the assay on NCI-H23, with NCI-H460, in the assay with OVCAR-3, in the assay on OVCAR-8 and with SF-268 was > 100 µM (inactive) each time. Further, the GI50 with SF-539, with SK-MEL-2 and in the assay with SN12C was > 100 µM (inactive) each time.
As to `COc1cc2c(cc1OC)[C@]1(O)C(=O)c3ccc4c(c3O[C@@H]1CO2)C[C@H](C(C)(C)O)O4`, the GI50 in the assay with ACHN was 15.1 µM (inactive); in the assay with CCRF-CEM, 68.1 µM (inactive); with HCT-116 it was 26.2 µM (inactive); with HOP-92, 33.6 µM (inactive); with IGROV-1, > 100 µM (inactive); in the assay with K562, 17.1 µM (inactive). For the same molecule, the GI50 is > 100 µM (inactive) in the assay with KM12; 8.89 µM (inactive) in the assay with Malme-3M; 2.65 µM (inactive) in the assay on NCI-H23; > 100 µM (inactive) with NCI-H460; 74.3 µM (inactive) in the assay with OVCAR-3; 85.3 µM (inactive) in the assay on OVCAR-8. In addition, the GI50 in the assay with RPMI-8226 was 36.5 µM (inactive); in the assay on SF-539 it was > 100 µM (inactive); in the assay with SK-MEL-2, > 100 µM (inactive).
Consider `CCOC(=O)CCC(NC(=O)c1ccc(NC(OC)c2nc3cc(C(F)(F)F)ccc3nc2-c2ccccc2)cc1)C(=O)OCC` (stereo not given), for which the GI50 is 16.1 µM (inactive) with ACHN; 17.1 µM (inactive) with CAKI-1; 2.51 µM (inactive) in the assay on CCRF-CEM; 2.92 µM (inactive) with HCT-116; 16 µM (inactive) in the assay on HOP-92; 15.7 µM (inactive) with IGROV-1. The GI50 was 2.89 µM (inactive) in the assay on K562; 6.24 µM (inactive) in the assay on KM12; 17 µM (inactive) in the assay with Malme-3M; 16 µM (inactive) with NCI-H23; 12.7 µM (inactive) in the assay with NCI-H460; 18.5 µM (inactive) in the assay on OVCAR-3. The GI50 in the assay on OVCAR-8 was 10.3 µM (inactive); in the assay with RPMI-8226, 6.41 µM (inactive); with SF-268, 16.6 µM (inactive); with SF-539, 13.2 µM (inactive); in the assay on SK-MEL-2, 17.3 µM (inactive); in the assay with SN12C, 14.5 µM (inactive).
As for `N#CCCc1nc2ccc(Br)cc2c(=O)n1CCO`, the GI50 in the assay on CAKI-1, with CCRF-CEM, in the assay with HOP-92, in the assay on IGROV-1, with K562 and with KM12 was > 100 µM (inactive) each time. For the same molecule, the GI50 in the assay on Malme-3M, in the assay with NCI-H23, with OVCAR-3, in the assay on OVCAR-8, in the assay with RPMI-8226 and in the assay on SF-268 was > 100 µM (inactive) in each case. The GI50 with SF-539, in the assay with SK-MEL-2 and in the assay on SN12C was > 100 µM (inactive) each time.
For the molecule `Cc1cccc(C(=O)O)c1C(=O)c1cccc2ccccc12`, the GI50 in the assay with ACHN is > 100 µM (inactive); in the assay on CAKI-1, > 100 µM (inactive); in the assay on CCRF-CEM it was > 100 µM (inactive); with HCT-116, > 100 µM (inactive); in the assay with IGROV-1, > 100 µM (inactive); with K562, 65 µM (inactive). The GI50 in the assay with KM12, in the assay on Malme-3M, with NCI-H23, in the assay on NCI-H460, in the assay on OVCAR-3 and in the assay with OVCAR-8 was > 100 µM (inactive) in each case. Also, the GI50 with SF-268 was > 100 µM (inactive); in the assay on SK-MEL-2, 98.2 µM (inactive); in the assay on SN12C, > 100 µM (inactive); in the assay with SR it was > 100 µM (inactive).
Regarding `C=C1Cc2cc(OC)c(OC)c(OC)c2-c2ccc(SC)c(=O)cc21`, the GI50 in the assay with ACHN was < 0.01 µM (active); in the assay on CCRF-CEM, < 0.01 µM (active); with HCT-116, < 0.01 µM (active); with IGROV-1, < 0.0424 µM (active); in the assay on K562, < 0.01 µM (active); in the assay on KM12, < 0.01 µM (active). For the same molecule, the GI50 in the assay with Malme-3M, with NCI-H23, in the assay with NCI-H460, with OVCAR-3, in the assay on OVCAR-8 and with RPMI-8226 was < 0.01 µM (active) each time. Also, the GI50 with SF-268, in the assay with SF-539, in the assay with SK-MEL-2, with SN12C and in the assay with SR was < 0.01 µM (active) in each case.
Turning to `O=C1C(c2ccccc2)=C(c2ccccc2)[C@H](c2ccccc2)[C@]1(Cc1nnn(-c2ccc([N+](=O)[O-])cc2)c1N1CCOCC1)c1ccccc1`, the GI50 with ACHN is 14.5 µM (inactive); with CAKI-1, > 37.5 µM (inactive); in the assay on CCRF-CEM it was > 37.5 µM (inactive); with HCT-116, 28.7 µM (inactive); in the assay on HOP-92, 0.00621 µM (active); with IGROV-1 it was > 37.5 µM (inactive). For the same molecule, the GI50 in the assay with K562 was > 37.5 µM (inactive); in the assay with NCI-H23, > 37.5 µM (inactive); in the assay with NCI-H460 it was > 37.5 µM (inactive); in the assay on OVCAR-3, 9.93 µM (inactive); with OVCAR-8 it was > 37.5 µM (inactive); in the assay with RPMI-8226, > 37.5 µM (inactive). For the same molecule, the GI50 in the assay on SF-539 and with SN12C was > 37.5 µM (inactive) each time.
With `Cc1ccc(S(=O)(=O)N[C@H](C(=O)O)c2ccccc2)cc1`, the GI50 in the assay with ACHN, in the assay with CAKI-1, in the assay on CCRF-CEM, with HOP-92, with IGROV-1 and in the assay on K562 was > 100 µM (inactive) each time. In addition, the GI50 in the assay on KM12, in the assay on Malme-3M, in the assay with NCI-H23, in the assay on NCI-H460, in the assay on OVCAR-3 and in the assay with OVCAR-8 was > 100 µM (inactive) in each case. Besides, the GI50 was 26.8 µM (inactive) in the assay on RPMI-8226; > 100 µM (inactive) in the assay on SF-268; > 100 µM (inactive) in the assay on SF-539; > 100 µM (inactive) with SK-MEL-2; > 100 µM (inactive) in the assay with SN12C.
In the case of `COc1cccc(-c2cc(O)c3cc(OC)c(OC)cc3n2)c1`, the GI50 was > 100 µM (inactive) with ACHN; 31.8 µM (inactive) in the assay on CCRF-CEM; 89.3 µM (inactive) in the assay on IGROV-1; 40.3 µM (inactive) in the assay on K562; 24.2 µM (inactive) in the assay on KM12; 35.7 µM (inactive) in the assay with Malme-3M. The GI50 was 41.1 µM (inactive) in the assay on NCI-H23; 30.3 µM (inactive) in the assay with NCI-H460; 45.2 µM (inactive) with OVCAR-8; 45.3 µM (inactive) in the assay with RPMI-8226; 26.4 µM (inactive) in the assay on SF-539; 68.7 µM (inactive) with SN12C. For the same molecule, in the assay with SR, the GI50 was 56.1 µM (inactive).
For `CC(C)C(/C=C/c1ccccc1)=N\NC(=O)N/N=C(/C=C/c1ccccc1)C(C)C`, the GI50 in the assay on ACHN was 26.9 µM (inactive); in the assay with CAKI-1, 6.98 µM (inactive); in the assay with CCRF-CEM it was 28.2 µM (inactive); with HCT-116 it was 19.1 µM (inactive); in the assay with HOP-92, 20.7 µM (inactive); with IGROV-1, 39.1 µM (inactive). For the same molecule, the GI50 with K562 was 21.2 µM (inactive); in the assay with KM12, 36.3 µM (inactive); in the assay with NCI-H23, 53.7 µM (inactive); in the assay on NCI-H460 it was 14.4 µM (inactive); with OVCAR-8, 28.8 µM (inactive); with RPMI-8226 it was 24.3 µM (inactive). In addition, the GI50 in the assay on SF-268 is 48 µM (inactive); in the assay on SF-539, 31.1 µM (inactive); with SK-MEL-2, 19.9 µM (inactive); in the assay with SN12C it was 17.3 µM (inactive); in the assay on SR it was 20.8 µM (inactive).
With `CC(C)(C)C(=O)O[C@@H]1COC2C(O)COC21` (stereo not given in full), the GI50 with ACHN, in the assay with CAKI-1, in the assay on CCRF-CEM, in the assay with HCT-116, in the assay with HOP-92 and with IGROV-1 was > 100 µM (inactive) in each case. Moreover, the GI50 with K562, with KM12, in the assay with Malme-3M, with NCI-H23, in the assay on NCI-H460 and in the assay on OVCAR-3 was > 100 µM (inactive) in each case. Besides, the GI50 in the assay on OVCAR-8, in the assay on SF-268, in the assay on SF-539, in the assay with SN12C and in the assay on SR was > 100 µM (inactive) in each case.
Consider `CC1=C(C(=O)NCc2ccccc2)C(c2ccc([N+](=O)[O-])cc2)C(C(=O)NCc2ccccc2)=C(C)N1`, for which the GI50 in the assay on ACHN was 27.4 µM (inactive); in the assay with CAKI-1 it was 26.7 µM (inactive); with HCT-116, 21.9 µM (inactive); in the assay on HOP-92, 26.8 µM (inactive); with IGROV-1 it was 56.5 µM (inactive); with K562 it was 31.2 µM (inactive). In addition, the GI50 in the assay on KM12 is 34.7 µM (inactive); in the assay with Malme-3M it was 67.5 µM (inactive); with NCI-H23 it was 39.7 µM (inactive); in the assay with NCI-H460, 35.1 µM (inactive); in the assay with OVCAR-3, 46.5 µM (inactive); with OVCAR-8, 39.8 µM (inactive). The GI50 in the assay with SF-268 is 50.7 µM (inactive); in the assay on SF-539, 66.4 µM (inactive); in the assay on SK-MEL-2, 30.8 µM (inactive); with SN12C, 76 µM (inactive).
